# In patent US20240376090A1, “ISOXAZOLE DERIVATIVES AS MODULATORS OF THE 5-HT2A SEROTONIN RECEPTOR USEFUL FOR THE TREATMENT OF DISORDERED RELATED THERETO” (Arena Pharmaceuticals, Inc., priority 2020, published 2024):
# Molecular target: 5-HT2A receptor (Homo sapiens (Human), UniProt P28223)
# Test: Radioligand binding assay ([3H]5-HT competition), 5-HT2A
# Details: [3H]5-HT radioligand, membranes of HEK293 cells expressing recombinant 5-HT2A; Ki from IC50 by Cheng-Prusoff; read-out: 5-HT2A serotonin binding Ki value
# Method: Competition binding experiments consisted of addition of 5 μL of serially diluted test compound, 50 μL of radioligand stock diluted in Assay Buffer (20 mM HEPES, pH 7.4, 10 mM MgCl2), and 145 μL of diluted membrane expressing the receptor of interest to 96-well microtiter plates, which were then incubated for one hour at room temperature. Assay incubations were terminated by rapid filtration through Perkin Elmer GF/C filtration plates under vacuum pressure using a 96-well Packard filtration apparatus, followed by washing the filter plates several times with ice cold Assay Buffer. Plates were then dried at 45° C. for a minimum of four hours. Finally, 25 μL of BetaScint scintillation cocktail was added to each well and the plates were counted in a Packard TopCount scintillation counter. In each competition study, test compounds were assayed at 10 concentrations with three replicates at each test concentration. Dose-response curves were constructed to determine IC50 values and these were converted to corresponding Ki values using the Cheng-Prusoff equation.
# 5-HT2A receptor, sequence (P28223 whole entry): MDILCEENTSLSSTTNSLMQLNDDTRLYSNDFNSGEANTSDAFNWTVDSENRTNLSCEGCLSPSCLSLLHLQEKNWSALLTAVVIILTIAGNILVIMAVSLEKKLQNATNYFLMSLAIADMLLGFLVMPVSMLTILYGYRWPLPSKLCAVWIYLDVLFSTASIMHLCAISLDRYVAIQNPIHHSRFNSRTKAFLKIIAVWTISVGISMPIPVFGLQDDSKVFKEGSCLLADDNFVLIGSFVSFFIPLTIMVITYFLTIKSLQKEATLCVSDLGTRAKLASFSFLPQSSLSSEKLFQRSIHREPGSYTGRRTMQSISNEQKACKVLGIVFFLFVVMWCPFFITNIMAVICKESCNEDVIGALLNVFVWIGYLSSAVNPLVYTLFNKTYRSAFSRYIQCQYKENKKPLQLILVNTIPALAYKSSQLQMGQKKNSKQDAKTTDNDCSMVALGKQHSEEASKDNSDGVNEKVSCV
compound,measurement,value
"CCOC1CC1C(=O)Nc1ccc(OCCN2CCOCC2)c(-c2c(C)noc2C)c1 (centres unmarked) [Compound 135, N-[3-(3,5-dimethylisoxazol-4-yl)-4-(2-morpholinoethoxy)phenyl]-2-ethoxy-cyclopropanecarboxamide]",Ki,20.1 nM
"Cc1noc(C)c1-c1cc(NC(=O)C2CC2)ccc1OCCN1CCOC(=O)CC1 [Compound 137, N-[3-(3,5-dimethylisoxazol-4-yl)-4-[2-(7-oxo-1,4-oxazepan-4-yl)ethoxy]phenyl]cyclopropanecarboxamide]",Ki,551 nM
"Cc1noc(C)c1-c1cc(NC(=O)C2CC2)ccc1OCCN1CCN2C(=O)CCC2C1 (centres unmarked) [Compound 138, N-(3-(3,5-dimethylisoxazol-4-yl)-4-(2-(6-oxohexahydropyrrolo[1,2-a]pyrazin-2(1H)-yl)ethoxy)phenyl)cyclopropanecarboxamide]",Ki,24.6 nM
"Cc1noc(C)c1-c1cc(NC(=O)C2CC2)ccc1OCCN1CCC2(CC1)CNC2=O [Compound 139, N-(3-(3,5-dimethylisoxazol-4-yl)-4-(2-(1-oxo-2,7-diazaspiro[3.5]nonan-7-yl)ethoxy)phenyl)cyclopropanecarboxamide]",Ki,124 nM
"Cc1noc(C)c1-c1cc(NC(=O)C2CC2)ccc1OCCN1CCC2(CC1)CC(=O)N2 [Compound 140, N-(3-(3,5-dimethylisoxazol-4-yl)-4-(2-(2-oxo-1,7-diazaspiro[3.5]nonan-7-yl)ethoxy)phenyl)cyclopropanecarboxamide]",Ki,228 nM
"Cc1noc(C)c1-c1cc(NC(=O)C2CC2)ccc1OCCN1CCC2(CCOC2=O)CC1 [Compound 142, N-(3-(3,5-dimethylisoxazol-4-yl)-4-(2-(1-oxo-2-oxa-8-azaspiro[4.5]decan-8-yl)ethoxy)phenyl)cyclopropanecarboxamide]",Ki,67.4 nM
"COC1CCN(CCOc2ccc(NC(=O)C3CC3)cc2-c2c(C)noc2C)CC1 [Compound 143, N-(3-(3,5-dimethylisoxazol-4-yl)-4-(2-(4-methoxypiperidin-1-yl)ethoxy)phenyl)cyclopropanecarboxamide]",Ki,84 nM
"CO[C@@H]1CCN(CCOc2ccc(NC(=O)C3CC3)cc2-c2c(C)noc2C)C1 [Compound 145, (R)—N-(3-(3,5-dimethylisoxazol-4-yl)-4-(2-(3-methoxypyrrolidin-1-yl)ethoxy)phenyl)cyclopropanecarboxamide]",Ki,5.51 nM
"Cc1noc(C)c1-c1cc(NC(=O)C2CC2)ccc1OCCN1CC[C@H](O)C1 [Compound 147, (S)—N-(3-(3,5-dimethylisoxazol-4-yl)-4-(2-(3-hydroxypyrrolidin-1-yl)ethoxy)phenyl)cyclopropanecarboxamide]",Ki,25.2 nM
"Cc1noc(C)c1-c1cc(NC(=O)C2CC2)ccc1OCCN1CC[C@@H](O)C1 [Compound 148, (R)—N-(3-(3,5-dimethylisoxazol-4-yl)-4-(2-(3-hydroxypyrrolidin-1-yl)ethoxy)phenyl)cyclopropanecarboxamide]",Ki,71.6 nM
"CCN(C)CCOc1ccc(NC(=O)C2CC2)cc1-c1c(C)noc1C [Compound 149, N-(3-(3,5-dimethylisoxazol-4-yl)-4-(2-(ethyl(methyl)amino)ethoxy)phenyl)cyclopropanecarboxamide]",Ki,13.9 nM
"CCCN(C)CCOc1ccc(NC(=O)C2CC2)cc1-c1c(C)noc1C [Compound 150, N-(3-(3,5-dimethylisoxazol-4-yl)-4-(2-(methyl(propyl)amino)ethoxy)phenyl)cyclopropanecarboxamide]",Ki,13.5 nM
"Cc1noc(C)c1-c1cc(NC(=O)C2CC2)ccc1OCCN(C)CC1CC1 [Compound 151, N-(4-(2-((cyclopropylmethyl)(methyl)amino)ethoxy)-3-(3,5-dimethylisoxazol-4-yl)phenyl)cyclopropanecarboxamide]",Ki,47.1 nM
"Cc1noc(C)c1-c1cc(NC(=O)C2CC2)ccc1OCCN(C)C1CCC1 [Compound 152, N-(4-(2-(cyclobutyl(methyl)amino)ethoxy)-3-(3,5-dimethylisoxazol-4-yl)phenyl)cyclopropanecarboxamide]",Ki,41.7 nM
